Drawing on US20050080113A1, “Medicinal compositions” (priority 2001, published 2005), this text covers IC50 and melting point for 9 compounds.

The subject of data set [1] is TNF-α production in THP-1 cells. Briefly: Measurement of inhibitory activity of TNF-α production (LPS-stimulated THP-1 cells, ELISA), Reference Example K 2. The data set is classed as cell-based. The settings on record: Homo sapiens, Reference Example H compounds, LPS 5 μg/mL, 4 hours, read-out: IC50 (inhibition of TNF-α production). The procedure:
THP-1 cells cultured in a PRMI 1640 medium (Life Technologies, Inc., USA) containing 1% inactivated fetal bovine serum (Life Technologies, Inc.) and 10 mM HEPES (pH 7.5) were inoculated on a 96 well plate to give 1×10^5 cells/well, then, 1 μL of a sample compound dissolved in DMSO was added. After incubation for 1 hour at 37° C. in a CO2 incubator, LPS (Wako Pure Chemical Industries Ltd.) was added to give a final concentration of 5 μg/mL. After incubation for 4 hours at 37° C. in a CO2 incubator, the supernatant was obtained by centrifugal separation. The TNF-α concentration in the supernatant was measured by ELISA (R&D Systems, Quantikine Kit). The concentration (IC50 value) of a sample compound necessary for inhibiting 50% of TNF-α production was calculated by PRISM 2.01 (GraphPad Software).
On the technique in general: ELISA stands for enzyme-linked immunosorbent assay.

The target in data set [2] is T1, human p38 MAP kinase (Homo sapiens, UniProt Q16539).
T1 construct: made in house; host or cells: Sf-21 insect cells, baculovirus (BAC-HP38 co-infected with BAC-caMKK3)
T1 sequence (Q16539 whole entry): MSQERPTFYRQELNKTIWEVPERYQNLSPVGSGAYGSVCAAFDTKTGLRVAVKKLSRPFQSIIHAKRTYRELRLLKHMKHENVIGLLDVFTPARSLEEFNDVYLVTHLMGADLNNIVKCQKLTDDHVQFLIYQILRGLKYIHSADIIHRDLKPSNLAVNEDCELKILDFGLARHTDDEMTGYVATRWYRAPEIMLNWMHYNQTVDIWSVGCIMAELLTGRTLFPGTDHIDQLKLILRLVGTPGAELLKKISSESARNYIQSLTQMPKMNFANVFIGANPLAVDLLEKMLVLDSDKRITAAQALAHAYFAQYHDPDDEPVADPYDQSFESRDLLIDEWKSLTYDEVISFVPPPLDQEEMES
Description: Inhibition of active type p38 MAP kinase (32P incorporation into Myelin Basic Protein), Reference Example K 1. The data set is classed as biochemical. The settings on record: Reference Example H compounds, 30° C., 60 minutes. The procedure:
Genetic manipulation methods described below are based on methods described in Maniatis et al., Molecular Cloning, ColdSpring Harbor Laboratory, 1989, and the appended reagent protocol.
(§1) (1) Cloning of Human p38 MAP Kinase Gene and Preparation of Recombinant Baculovirus
Cloning of human p38 MAP kinase gene was conducted by a PCR method using primer set p38 U: 5′-[…] C-3′ [SEQ ID No. 1] and PAG-L: 5′-[…]-3′ [SEQ ID No. 2] synthesized referring to the nucleotide sequence of p38 MAP kinase gene of Han et al., Science 265 (5173), 808 811 (1994), utilizing kidney cDNA (QUICK-Clone cDNA, manufactured by Toyobo Co., Ltd.) as a template.
A PCR reaction was performed according to Hot Start method using AmpliWax PCR Gem 100 (Takara Shuzo Co., Ltd.). For preparing lower layer mixed liquid, 2 μL of 10×LA PCR Buffer, 3 μL of 2.5 mM dNTP solution, each 2.5 μL of 12.5 μM primer solution, and 10 μL of sterile distilled water were mixed. For preparing upper layer mixed liquid, 1 μL of human heart cDNA (1 ng/mL) as a template, 3 μL of 10×LA PCR Buffer, 1 μL of 2.5 mM dNTP solution, 0.5 μL of TaKaRa LA Taq DNA polymerase (Takara Shuzo Co., Ltd.) and 24.5 μL of sterile distilled water were mixed. To the prepared lower mixed liquid was added one AmpliWax PCR Gem 100 (Takara Shuzo Co., Ltd.), treated for 5 minutes at 70° C. and 5 minutes in ice, then, the upper mixed liquid was added, to prepare a reaction solution for PCR. A tube filled with the reaction solution was set on Thermal Cycler (Perkin Elmer), then, treated for 2 minutes at 95° C. Further, a cycle including 15 seconds at 95° C. and 2 minutes at 68° C. was repeated 35 times, then, treated for 8 minutes at 72° C. The resulted PCR product was subjected to agarose gel (1%) electrophoresis, a 1.1 kb DNA fragment containing a p38 MAP kinase gene was recovered from the gel, then, pT7Blue-T vector (Takara Shuzo Co., Ltd.) was inserted to prepare a plasmid pHP38.
4.8 kb XhoI-KpnI fragment of plasmid pFASTBAC1 (CIBCOBRL) and 1.1 kb XhoI-Kpn fragment of the above-mentioned plasmid pHP38 were ligated to construct plasmid pFBHP38.
Plasmid pFBHP38 and BAC-TO-BAC Baculovirus Expression System (GIBCOBRL) were used to prepare virus stock BAC-HP38 of recombinant baculovirus.
(§2) (2) Cloning of Human MKK3 Gene and Preparation of Recombinant Baculovirus
Cloning of human MKK3 gene was conducted by a PCR method using primer set MKK-U: 5′-[…] 3′ [SEQ ID No. 3] and MKK-L: 5′-[…]-3′ [SEQ ID No. 4] synthesized referring to the nucleotide sequence of MKK3 gene of Derijard, B. et al., Science 267 (5198), 682 685 (1995), utilizing kidney cDNA (QUICK-Clone cDNA, manufactured by Toyobo Co., Ltd.) as a template.
A PCR reaction was performed according to Hot Start method using AmpliWax PCR Gem 100 (Takara Shuzo Co., Ltd.). […]

Data set [3] deals with T1, human p38 MAP kinase. Briefly: Measurement of the p38 MAP kinase inhibitory activity, 32P uptake into Myelin Basic Protein (Reference Example F 2). The data set is classed as biochemical. The note with it: active form p38 MAP kinase, 30° C. 60 minutes, read-out: IC50 (p38 MAP kinase inhibitory activity, uptake of 32P into acid insoluble fraction). The procedure:
The genetic manipulations described below were according to the methods described in the book (Maniatis et al., Molecular Cloning, Cold Spring Harbor Laboratory, 1989) or a method described in the protocol attached to the reagent.
as §1
Cloning of human p38 MAP kinase gene was performed by a PCR method using a primer set P38 U: 5′-[…]-3′ [SEQ ID NO:9] and PAG-L: 5′-[…]-3′ [SEQ ID NO:10] made by reference to the base sequence of p38 MAP kinase gene reported by Han et al. (Science 265 (5173), 808 811 (1994)) and employing kidney cDNA (Toyobo, QUICK-Clone cDNA) as a template.
A PCR reaction was performed by a Hot Start method using AmpliWax PCR Gem 100 (Takara Shuzo). As the lower mixed solution, 2 μL 10×LA PCR Buffer, 3 μL 2.5 mM dNTP solution, each 2.5 μL of 12.5 μM primer solution, and 10 μL sterile distilled water were mixed. As the upper mixed solution, 1 μL human cardiac cDNA (1 ng/mL) as a template, 3 μL 10×LA PCR Buffer, 1 μL 2.5 mM dNTP solution, 0.5 μL TaKaRa LA Taq DNA polymerase (Takara Shuzo), and 24.5 μL sterile distilled water were mixed. One AmpliWax PCR Gem 100 (Takara Shuzo) was added to the prepared lower mixed solution to treat at 70° C. for 5 minutes and for 5 minutes in an ice and, thereafter, the upper mixed solution was added to prepare a reaction solution for PCR. A tube containing the reaction solution was set at a thermal cycler (Perkin Elmer), which was treated at 95° C. for 2 minutes. Further, after repeating 35 times a cycle of 15 seconds at 95° C. and 2 minutes at 68° C., treatment was performed at 72° C. for 8 minutes. The resulting PCR product was subjected to agarose gel (1%) electrophoresis, 1.1 kb DNA fragment containing p38 MAP kinase gene was recovered from the gel and, thereafter, which was inserted into pT7Blue-T vector (Takara Shuzo) to make the plasmid pHP38.
The 4.8 kb XhoI-KpnI fragment of the plasmid pFASTBAC1 (CIBCOBRL) and the 1.1 kb XhoI-Kpn fragment of the above plasmid pHP38 were ligated to make the plasmid pFBHP38.
The plasmid pFBHP38 and BAC-TO-BAC Baculovirus Expression System (GIBCOBRL) were used to prepare the recombinant Baculovirus virusstock BAC-HP38.
as §2
Cloning of human MKK3 gene was performed by a PCR method using a primer set MKK-U: 5′-[…]-3′ [SEQ ID NO:11] and MKK-L: 5′-[…]-3′ [SEQ ID NO:12] made by reference to the base sequence of MKK3 gene reported by Derijard, B. et al., Science 267 (5198), 682 685 (1995) and using kidney cDNA (Toyobo, QUICK-Clone cDNA).
A PCR reaction was performed by a Hot Start method using AmpliWax PCR Gem 100 (Takara Shuzo). As the lower mixed solution, 2 μL 10×LA PCR Buffer, 3 μL 2.5 mM dNTP solution, each 2.5 μL of 12.5 μM primer solution, and 10 μL sterile distilled water were mixed. As the upper mixed solution, 1 μL human kidney cDNA (1 ng/mL), 3 μL 10×LA PCR Buffer, 1 μL 2.5 mM dNTP solution, 0.5 μL TaKaRa LA taq DNA polymerase (Takara Shuzo) and 24.5 μL sterile distilled water were mixed. One AmpliWax PCR Gem 100 (Takara Shuzo) was added to the prepared lower mixed solution to treat at 70° C. for 5 minutes and for 5 minutes in ice and, thereafter, the upper mixed solution was added to prepare a reaction solution for PCR. A tube containing the reaction solution was set at a thermal cycler (Perkin Elmer), which was treated at 95° C. for 2 minutes. Further, after repeating 35 times a cycle of 15 seconds at 95° C. and 2 minutes at 68° C., treatment was performed at 72° C. for 8 minutes. The resulting PCR product was subjected to agarose gel (1%) electrophoresis, 1.0 kb DNA fragment containing MKK3 gene was recovered from the gel and, thereafter, which was inserted into pT7Blue-T vector (Takara Shuzo) to make the plasmid pHMKK3. […]

The next data set has as its system TNF-α production. Description: Measurement of inhibiting activity of TNF-α production in LPS-stimulated THP-1 cells, ELISA (Reference Example F 3). The data set is classed as cell-based. The note with it: Homo sapiens, LPS 5 μg/mL, 4 hours, ELISA (R&D System). On the procedure:
Measurement of Inhibiting Activity of TNF-α Production
After THP-1 cells which had been cultured in PRMI 1640 medium (manufactured by Life Technologies, Inc.) containing 1% non-activated bovine fetal serum (manufactured by Life Technologies, Inc., U.S.A.) and 10 mM HEPES (pH 7.5) seeded on a 96 well plate to 1×10^5 cells/well, 1 μL test compound dissolved in DMSO was added to there. After incubation at 37° C. for 1 hour in a CO2 incubator, LPS (Wako Pure Chemicals) was added to the final concentration 5 μg/mL. After cultured at 37° C. for 4 hours in a CO2 incubator, the supernatant was obtained by centrifugation. The concentration of TNF-α in the supernatant was measured with ELISA (R&D System, Quantikine Kit). The concentration (IC50 value) necessary for inhibiting TNF-α production by 50% was calculated by PRIMS 2.01 (Graphpad Software).

Each structure is given as a SMILES string.

For the compound `CCc1nc(-c2cccc(Cl)c2)c(-c2ccnc(NC3CCCCC3)c2)s1` [36-10], the melting point lay within 106 to 107 °C. For the same compound, in data set [1], the IC50 stood at 55 nM. This compound displayed an IC50 against human p38 MAP kinase [2] of 1.1 nM.
In the case of `Cc1cccc(-c2nc(N(C)C(=O)c3ccc(C)nc3)sc2-c2ccnc(NC3CCCC3)c2)c1` [46-4], the IC50 in data set [1] turned out to be 82 nM.
As to `CCC(=O)Nc1cc(-c2sc(-c3ccc(S(C)(=O)=O)cc3)nc2-c2cccc(Cl)c2)ccn1` [58-7], the melting point was 224 to 225 °C. In data set [1], the IC50 came out at 21 nM. The compound also returned an IC50 at human p38 MAP kinase [2] of 8.4 nM.
On to `Cc1cc(C)cc(-c2nc(N)sc2-c2ccnc(OCc3ccccc3)c2)c1` [D 1, [4-(3,5-dimethylphenyl)-5-(2-phenylmethyloxy-4-pyridyl)-1,3-thiazol-2-yl]amine], for which the IC50 on human p38 MAP kinase [3] was found to be 430 nM.
On the same count and under the same terms, in the case of `COc1ccc(-c2nc(NC(=O)c3ccccc3)sc2-c2ccnc(NC(=O)c3ccccc3)c2)cc1` [D 2, N-[4-[2-benzoylamino-4-(4-methoxyphenyl)-1,3-thiazol-5-yl]-2-pyridyl]benzamide] it was 63 nM.
As to `COc1ccc(-c2nc(NC(=O)c3cccnc3)sc2-c2ccnc(NC(=O)c3cccnc3)c2)cc1` [D 3, N-[4-(4-methoxyphenyl)-5-[2-[(3-pyridylcarbonylamino)]-4-pyridyl]-1,3-thiazol-2-yl]nicotinamide], the IC50 in the data set with TNF-α production came to 26 nM; on human p38 MAP kinase [3], 23 nM.
As for `Cc1cc(C)cc(-c2nc(N)sc2-c2ccnc(NC(=O)c3ccccc3)c2)c1` [D 5, N-[4-[2-amino-4-(3,5-dimethylphenyl)-1,3-thiazol-5-yl]-2-pyridyl]benzamide], the IC50 on human p38 MAP kinase [3] turned out to be 29 nM.
Compound `CCc1nc(-c2cccc(Cl)c2)c(-c2ccnc(NC(C)=O)c2)s1` [H 30-2, N-[4-[4-(3-chlorophenyl)-2-ethyl-1,3-thiazol-5-yl]-2-pyridyl]acetamide] registered a melting point of 149 to 150 °C. Further, in data set [1], the IC50 is 120 nM. Besides, on human p38 MAP kinase [2], 10 nM corresponded to half-maximal inhibition (IC50).
For `Cc1cccc(-c2nc(N)sc2-c2ccnc(NC3CCCCC3)c2)c1` [H 34-2, [5 (2 cyclohexylamino-4-pyridyl)-4 (3 methylphenyl)-1,3thiazol-2 yl]amine] the same measures were 168 to 169 °C, 2 nM and 9.9 nM.

For orientation: IC50 means the point on the concentration scale where inhibition reaches its midpoint. The term melting point denotes the temperature, or range, at which the solid turns liquid.
